Assay results as given in patent US11072616B2, “Cyclic peptides targeting alpha-4-beta-7 integrin” (Zealand Pharma A/S, priority 2015, dated 2021).

Biological target: T1, integrin α4β7 (Homo sapiens, UniProt P13612+P26010)
T1 sequence (P13612 34-977 limits assumed): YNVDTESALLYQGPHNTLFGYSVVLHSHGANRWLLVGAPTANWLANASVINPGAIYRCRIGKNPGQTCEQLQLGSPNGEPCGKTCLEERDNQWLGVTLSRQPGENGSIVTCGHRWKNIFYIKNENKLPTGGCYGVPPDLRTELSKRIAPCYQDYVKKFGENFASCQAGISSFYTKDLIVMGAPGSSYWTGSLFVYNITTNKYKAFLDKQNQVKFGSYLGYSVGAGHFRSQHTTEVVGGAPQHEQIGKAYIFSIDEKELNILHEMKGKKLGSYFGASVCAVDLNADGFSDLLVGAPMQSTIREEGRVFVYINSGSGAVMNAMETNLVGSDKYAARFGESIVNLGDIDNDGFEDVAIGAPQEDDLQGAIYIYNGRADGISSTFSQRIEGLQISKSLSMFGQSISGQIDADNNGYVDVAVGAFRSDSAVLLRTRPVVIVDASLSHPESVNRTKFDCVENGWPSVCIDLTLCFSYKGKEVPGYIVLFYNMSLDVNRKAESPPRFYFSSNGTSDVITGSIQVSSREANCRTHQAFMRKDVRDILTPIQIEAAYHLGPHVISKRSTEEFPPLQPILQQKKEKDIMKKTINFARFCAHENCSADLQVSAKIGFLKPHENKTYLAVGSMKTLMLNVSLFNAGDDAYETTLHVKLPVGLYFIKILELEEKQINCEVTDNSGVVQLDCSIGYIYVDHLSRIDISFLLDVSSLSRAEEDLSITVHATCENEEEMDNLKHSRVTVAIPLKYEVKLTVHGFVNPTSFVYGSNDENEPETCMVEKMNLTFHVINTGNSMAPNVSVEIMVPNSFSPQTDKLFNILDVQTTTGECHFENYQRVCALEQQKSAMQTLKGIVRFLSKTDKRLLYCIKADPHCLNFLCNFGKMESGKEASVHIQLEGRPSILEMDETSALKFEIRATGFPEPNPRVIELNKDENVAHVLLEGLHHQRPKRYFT
T1 sequence (P26010 20-723 limits assumed): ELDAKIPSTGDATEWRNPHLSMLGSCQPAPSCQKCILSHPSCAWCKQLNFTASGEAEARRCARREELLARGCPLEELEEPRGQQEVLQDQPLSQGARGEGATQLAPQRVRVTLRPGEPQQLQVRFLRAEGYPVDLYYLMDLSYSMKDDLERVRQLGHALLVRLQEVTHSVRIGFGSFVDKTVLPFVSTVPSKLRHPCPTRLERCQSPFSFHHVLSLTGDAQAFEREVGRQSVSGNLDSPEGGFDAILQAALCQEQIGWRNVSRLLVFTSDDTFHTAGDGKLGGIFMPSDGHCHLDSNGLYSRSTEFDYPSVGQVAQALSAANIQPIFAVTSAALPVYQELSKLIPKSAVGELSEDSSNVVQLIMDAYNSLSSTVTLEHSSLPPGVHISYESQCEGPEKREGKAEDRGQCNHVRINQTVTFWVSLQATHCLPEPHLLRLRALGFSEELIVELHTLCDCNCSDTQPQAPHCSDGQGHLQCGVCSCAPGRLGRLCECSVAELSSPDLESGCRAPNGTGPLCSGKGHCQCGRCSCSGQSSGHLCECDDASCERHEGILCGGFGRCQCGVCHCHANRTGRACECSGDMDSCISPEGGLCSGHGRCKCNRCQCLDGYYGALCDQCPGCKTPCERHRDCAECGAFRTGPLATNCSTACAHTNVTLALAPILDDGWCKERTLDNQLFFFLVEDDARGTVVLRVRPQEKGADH
Assay: Integrin α4β7—MAdCAM-1 competition assay (ELISA)
Format: binding
Conditions: ratio a4b1 ELISA IC50 / a4b7 ELISA IC50
Procedure: Integrin α4β7—MAdCAM-1 Competition Assay
The plate was incubated at 4° C. overnight. […] The plate was then incubated for 1 hour at room temperature. The plate was washed three times with wash buffer (50 mM Tris, 100 mM NaCl, 1 mM MnCl2, 0.05% Tween). To each well, 50 μl of compound diluted in assay buffer was added by transfer from a compound serial dilution plate. […] The plate was incubated at room temperature with shaking for 2 hours to reach binding equilibrium. Then the plate was washed three times in wash buffer and 100 μl anti-human IgG Fc specific-horseradish peroxidase (HRP) (Abcam, Ab97225) diluted at 1:2000 in assay buffer was added to each well. The plate was incubated at room temperature for 1 hour under agitation. The plates were then washed three times and 100 μl of 1,3′,5,5′-tetramethylbenxidie (TMB) was then added to each well.

| Compound | Selectivity ELISA |
| --- | --- |
| CC(C)C[C@@H]1NC(=O)C2(CCCC2)NC(=O)[C@H](Cc2ccc(O)cc2)NC(=O)[C@@H]2CCCN2[C@H](C(=O)NC(C)(C)C)[C@H](C)NC(=O)[C@H]([C@@H](C)O)NC(=O)[C@H](CC(=O)O)NC1=O [Compound 104] | 4.2 |
| CC(C)C[C@@H]1NC(=O)C[C@H](CCCCN)NC(=O)[C@H](CC2CCCCC2)NC(=O)[C@@H]2CCCN2[C@H](C(=O)NC(C)(C)C)[C@H](C)NC(=O)[C@H]([C@@H](C)O)NC(=O)[C@H](CC(=O)O)NC1=O [Compound 210] | 16.0 |
| CC[C@H](C)[C@@H]1NC(=O)[C@H](CC(=O)O)NC(=O)[C@H](CC(C)C)NC(=O)[C@H](Cc2c[nH]c3ccccc23)NC(=O)[C@@H]2CCCN2[C@H](C(=O)NC(C)(C)C)[C@H](C)NC1=O [Compound 8] | 0.9 |
| CC(C)C[C@@H]1NC(=O)[C@H]2C[C@@H](O)CN2C(=O)[C@H](Cc2ccc(O)cc2)NC(=O)[C@@H]2CCCN2[C@H](C(=O)NC(C)(C)C)[C@H](C)NC(=O)[C@H]([C@@H](C)O)NC(=O)[C@H](CC(=O)O)NC1=O [Compound 141] | 2.0 |
| CC(C)C[C@@H]1NC(=O)C[C@H](CCCCN)NC(=O)C2(CCNCC2)NC(=O)[C@@H]2CCCN2[C@H](C(=O)NC(C)(C)C)[C@H](C)NC(=O)[C@H]([C@@H](C)O)NC(=O)[C@H](CC(=O)O)NC1=O [Compound 275] | 7.7 |
| CC(C)C[C@@H]1NC(=O)[C@@H](CCCN(C)C)NC(=O)[C@@H]2CCCN2[C@H](C(=O)NC(C)(C)C)[C@H](C)NC(=O)[C@H]([C@@H](C)O)NC(=O)[C@H](CC(=O)O)NC1=O [Compound 83] | 6.9 |
| CC(C)C[C@@H]1NC(=O)[C@H]2CCCCN2C(=O)[C@H](Cc2ccccc2I)NC(=O)[C@@H]2CCCN2[C@H](C(=O)NC(C)(C)C)[C@H](C)NC(=O)[C@H]([C@@H](C)O)NC(=O)[C@H](CC(=O)O)NC1=O [Compound 133] | 5.3 |
| CC(C)C[C@@H]1NC(=O)[C@H](Cc2ccc3ccccc3c2)NC(=O)[C@@H]2CCCN2[C@H](C(=O)NC(C)(C)C)[C@H](C)NC(=O)[C@H]([C@@H](C)O)NC(=O)[C@H](CC(=O)O)NC1=O [Compound 10] | 1.3 |
| CC(C)C[C@@H]1NC(=O)[C@@H]2C[C@@H](OCc3ccccc3)CN2C(=O)[C@@H]2CCCN2[C@H](C(=O)NC(C)(C)C)[C@H](C)NC(=O)[C@H]([C@@H](C)O)NC(=O)[C@H](CC(=O)O)NC1=O [Compound 57] | 2.5 |
| COc1cccc(-c2ccccc2C[C@@H]2NC(=O)[C@@H]3CCCN3[C@H](C(=O)NC(C)(C)C)[C@H](C)NC(=O)[C@H]([C@@H](C)O)NC(=O)[C@H](CC(=O)O)NC(=O)[C@H](CC(C)C)NC(=O)[C@H]3CCCCN3C2=O)c1 [Compound 136] | 6.6 |
| C[C@@H]1NC(=O)[C@H]([C@@H](C)O)NC(=O)[C@H](CC(=O)O)NC(=O)[C@H](CC(C)(C)C)NC(=O)[C@H]2CCCCN2C(=O)[C@H](Cc2ccc(O)cc2)NC(=O)[C@@H]2CCCN2[C@@H]1C(=O)NC(C)(C)C [Compound 150] | 8.2 |
| CC(C)C[C@@H]1NC(=O)[C@H]2CCCN2C(=O)[C@H](Cc2cc(F)c(F)c(F)c2)NC(=O)[C@@H]2CCCN2[C@H](C(=O)NC(C)(C)C)[C@H](C)NC(=O)[C@H]([C@@H](C)O)NC(=O)[C@H](CC(=O)O)NC1=O [Compound 128] | 11.4 |
| CC(C)C[C@@H]1NC(=O)CN(C)C(=O)[C@H](Cc2cccc3ccccc23)NC(=O)[C@@H]2CCCN2[C@H](C(=O)NC(C)(C)C)[C@H](C)NC(=O)[C@H]([C@@H](C)O)NC(=O)[C@H](CC(=O)O)NC1=O [Compound 117] | 8.7 |
| C=CCOc1ccc(C[C@@H]2NC(=O)[C@@H]3CCCN3[C@H](C(=O)NC(C)(C)C)[C@H](C)NC(=O)[C@H]([C@@H](C)O)NC(=O)[C@H](CC(=O)O)NC(=O)[C@H](CC(C)C)NC(=O)[C@@H](CO)NC2=O)cc1 [Compound 167] | 13.6 |
| CC(C)C[C@@H]1NC(=O)[C@H]2c3ccccc3CCN2C(=O)[C@@H]2CCCN2[C@H](C(=O)NC(C)(C)C)[C@H](C)NC(=O)[C@H]([C@@H](C)O)NC(=O)[C@H](CC(=O)O)NC1=O [Compound 98] | 2.7 |
| CC[C@H](C)[C@@H]1NC(=O)[C@H](CC(=O)O)NC(=O)[C@H](CC(C)C)NC(=O)[C@@H](CCCCN)N(C)C(=O)[C@H](Cc2ccc(O)cc2)NC(=O)[C@@H]2CCCN2[C@H](C(=O)NC(C)(C)C)[C@H](C)NC1=O [Compound 154] | 22.8 |
| CC(C)C[C@@H]1NC(=O)CN(C)C(=O)[C@H](Cc2cccc(I)c2)NC(=O)[C@@H]2CCCN2[C@H](C(=O)NC(C)(C)C)[C@H](C)NC(=O)[C@H]([C@@H](C)O)NC(=O)[C@H](CC(=O)O)NC1=O [Compound 106] | 18.7 |
| CC[C@H](C)[C@@H]1NC(=O)[C@H](CC(=O)O)NC(=O)[C@H](CC(C)C)NC(=O)C[C@@H](CCCCN)NC(=O)[C@H](Cc2ccccc2)NC(=O)[C@@H]2CCCN2[C@H](C(=O)NC(C)(C)C)[C@H](C)NC1=O [Compound 220] | 18.2 |
| CC(C)C[C@@H]1NC(=O)c2ccc(-c3ccccc3N3CCNCC3)c(c2)CNC(=O)[C@@H]2CCCN2[C@H](C(=O)NC(C)(C)C)[C@H](C)NC(=O)[C@H]([C@@H](C)O)NC(=O)[C@H](CC(=O)O)NC1=O [Compound 348] | 1.5 |
| CC(C)C[C@@H]1NC(=O)[C@H]2CCCCN2C(=O)[C@H](Cc2ccc(-c3ccccc3)cc2)NC(=O)[C@@H]2CCCN2[C@H](C(=O)NC(C)(C)C)[C@H](C)NC(=O)[C@H]([C@@H](C)O)NC(=O)[C@H](CC(=O)O)NC1=O [Compound 138] | 5.0 |
| CC(C)C[C@@H]1NC(=O)[C@@H]2CCN2C(=O)C[C@H](CCCCN)NC(=O)[C@@H]2CCCN2[C@H](C(=O)NC(C)(C)C)[C@H](C)NC(=O)[C@H]([C@@H](C)O)NC(=O)[C@H](CC(=O)O)NC1=O [Compound 319] | 4.8 |
| CC(C)C[C@@H]1NC(=O)[C@H](Cc2c[nH]cn2)NC(=O)[C@@H]2CCCN2[C@H](C(=O)NC(C)(C)C)[C@@H](CSc2ccccc2)NC(=O)[C@H](C(C)C)NC(=O)[C@H](CC(=O)O)NC1=O [Compound 2] | 1.697 |
| CC(C)C[C@@H]1NC(=O)CN(C)C(=O)[C@H](Cc2csc(-c3cccnc3)n2)NC(=O)[C@@H]2CCCN2[C@H](C(=O)NC(C)(C)C)[C@H](C)NC(=O)[C@H]([C@@H](C)O)NC(=O)[C@H](CC(=O)O)NC1=O [Compound 181] | 12.6 |
| CC(C)C[C@@H]1NC(=O)CN(C)C(=O)[C@H](Cc2csc(-c3ccccn3)n2)NC(=O)[C@@H]2CCCN2[C@H](C(=O)NC(C)(C)C)[C@H](C)NC(=O)[C@H]([C@@H](C)O)NC(=O)[C@H](CC(=O)O)NC1=O [Compound 179] | 15.2 |
| CC(C)C[C@@H]1NC(=O)C[C@H](CCCCN)NC(=O)[C@H](Cc2ccc(CN)cc2)NC(=O)[C@@H]2CCCN2[C@H](C(=O)NC(C)(C)C)[C@H](C)NC(=O)[C@H](C(C)C)NC(=O)[C@H](CC(=O)O)NC1=O [Compound 254] | 33.0 |
| CC(C)C[C@@H]1NC(=O)[C@H]2CCCCN2C(=O)[C@H](Cc2cccc3ccccc23)NC(=O)[C@@H]2CCCN2[C@H](C(=O)NC(C)(C)C)[C@H](C)NC(=O)[C@H]([C@@H](C)O)NC(=O)[C@H](CC(=O)O)NC1=O [Compound 143] | 2.1 |
